These results are taken from patent US8518952B2, “6 substituted 2-heterocyclylamino pyrazine compounds as CHK-1 inhibitors” (Pfizer Inc., priority 2008, dated 2013).

One test deals with T1, CHK1 (kinase domain) (Homo sapiens, UniProt O14757).
T1 construct: a solution containing 1 nM of CHK1 (kinase domain)
T1 sequence (O14757 9-265 limits assumed): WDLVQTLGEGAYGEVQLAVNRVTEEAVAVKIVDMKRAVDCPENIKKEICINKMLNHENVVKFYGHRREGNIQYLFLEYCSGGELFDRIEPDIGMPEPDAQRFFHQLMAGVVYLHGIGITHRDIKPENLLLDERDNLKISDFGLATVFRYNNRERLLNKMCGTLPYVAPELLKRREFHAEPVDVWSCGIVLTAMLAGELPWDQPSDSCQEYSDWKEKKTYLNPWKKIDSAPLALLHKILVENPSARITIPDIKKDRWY
The experiment in a line: CHK1 Ki determination, spectrophotometric coupled (pyruvate kinase/lactate dehydrogenase) assay. Type of test: biochemical. The note with it: CHK-1 kinase domain; 150 uM ATP, 125 uM Syntide 2. The method, boiled down: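 The CHK1 kinase domain was pre-incubated with compound for 15 min, and the reaction was started with 125 uM Syntide 2 and 150 uM ATP. ADP formation was coupled through pyruvate kinase/lactate dehydrogenase to NADH oxidation, read as the A340 decrease. Kiapp was fitted with a tight-binding equation that accounts for enzyme concentration and ATP Km; some entries are % inhibition.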

The subject of a further test is Mia Paca-2 cells. Description: Histone H3 (Ser10) phosphorylation ELISA, abrogation of camptothecin-induced G2 arrest (CHK-1 cellular assay). Type of test: cell-based. The note with it: Homo sapiens; Mia Paca-2 cells (entries marked *); camptothecin 8 hrs, then compound with nocodozole 16 hours. Put shortly:
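HeLa cells, or Mia Paca-2 where marked, were damaged with camptothecin for 8 h, then exposed to compound with nocodazole for 16 h. Mitotic entry was read as phospho-histone H3 (Ser10) by sandwich ELISA, with absorbance at 450 nm. EC50 came from four-parameter sigmoid fitting.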

Structures are written as SMILES.

`C[C@@H]1CNC[C@@H]1Nc1cncc(-c2cnc3sccn23)n1` [Example 181, 6-(imidazo[2,1-b][1,3]thiazol-5-yl)-N-[(3R,4R)-4-methylpyrrolidin-3-yl]pyrazin-2-amine]: on CHK1 (kinase domain), affinity was put at a Ki of 0.0072 µM. The compound further displayed an EC50 with Mia Paca-2 cells of 0.0261 µM.
With `C[C@@H]1C[C@@H](Nc2cncc(-c3cnc4cc(C#N)ccn34)n2)CN1` [Example 189, 3-(6-{[(3R,5R)-5-methylpyrrolidin-3-yl]amino}pyrazin-2-yl)imidazo[1,2-a]pyridine-7-carbonitrile], the Ki at CHK1 (kinase domain) worked out at 0.0179 µM. The compound further yielded an EC50 in the test on Mia Paca-2 cells of 0.626 µM.
